In US7410975B2, “Small molecule toll-like receptor (TLR) antagonists” (Coley Pharmaceutical Group, Inc., priority 2003, dated 2008):
Structures can show the parent of a compound that is named as a salt.

Molecular target: T1, human TLR7 (hTLR7) (Homo sapiens, UniProt Q9NYK1)
T1 construct: expressed in transfected cells
T1 sequence (Q9NYK1 27-1049): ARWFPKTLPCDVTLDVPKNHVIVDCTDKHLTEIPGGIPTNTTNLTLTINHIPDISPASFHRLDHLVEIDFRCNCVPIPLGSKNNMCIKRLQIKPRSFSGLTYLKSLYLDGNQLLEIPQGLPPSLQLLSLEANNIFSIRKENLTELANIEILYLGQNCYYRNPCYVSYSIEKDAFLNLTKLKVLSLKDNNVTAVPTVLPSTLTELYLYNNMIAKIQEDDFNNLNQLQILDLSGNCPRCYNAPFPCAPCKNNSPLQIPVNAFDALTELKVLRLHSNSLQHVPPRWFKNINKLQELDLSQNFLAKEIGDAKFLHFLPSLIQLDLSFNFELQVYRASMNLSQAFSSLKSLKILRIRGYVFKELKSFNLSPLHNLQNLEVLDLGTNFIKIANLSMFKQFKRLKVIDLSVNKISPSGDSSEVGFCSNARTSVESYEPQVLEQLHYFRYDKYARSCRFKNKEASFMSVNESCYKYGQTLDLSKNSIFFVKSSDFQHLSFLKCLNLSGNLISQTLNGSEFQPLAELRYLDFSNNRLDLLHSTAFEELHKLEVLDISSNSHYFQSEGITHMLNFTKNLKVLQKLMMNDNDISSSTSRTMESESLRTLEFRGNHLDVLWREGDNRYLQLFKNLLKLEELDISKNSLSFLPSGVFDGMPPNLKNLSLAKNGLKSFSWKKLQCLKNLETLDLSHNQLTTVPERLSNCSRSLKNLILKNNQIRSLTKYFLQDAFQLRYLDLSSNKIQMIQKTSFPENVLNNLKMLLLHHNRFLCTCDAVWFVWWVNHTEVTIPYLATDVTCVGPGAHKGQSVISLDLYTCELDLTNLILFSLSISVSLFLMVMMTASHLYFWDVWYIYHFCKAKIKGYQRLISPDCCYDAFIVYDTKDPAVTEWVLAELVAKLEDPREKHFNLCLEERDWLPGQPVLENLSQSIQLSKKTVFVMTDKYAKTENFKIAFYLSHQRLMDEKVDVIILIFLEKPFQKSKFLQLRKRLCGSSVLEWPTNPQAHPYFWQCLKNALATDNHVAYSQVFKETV
Assay: Antagonist screen, hTLR7-NFκB-293 cells, NF-κB-luciferase reporter, with EC50 of R848
Format: cell-based
Conditions: for hTLR7 (inhibitory effect, antagonist score): compound at 0.5, 5, 50 μg/ml, EC50 concentration of R848, 16 h, NF-κB-luciferase; for hTLR7 (inhibitory effect): hTLR7-NFκB-293 cells, with EC50 of R848, compound at 0.5, 5 and 50 μg/ml

Row | SMILES | hTLR7 (inhibitory effect, antagonist score) | hTLR7 (inhibitory effect)
1 | CN1CCc2cccc3c2[C@H]1Cc1ccc(O)c(O)c1-3.Cl [compound 101, Apomorphinehydrochloride (R, —)] | — (compounds for which there was no clear down regulation even at 50 μg/ml) | –
2 | CC(C)(C)c1ccc(C(O)CCCN2CCC(C(O)(c3ccccc3)c3ccccc3)CC2)cc1 (stereo not shown) [compound 138, Terfenadine] | 11 (compounds for which there was clear down regulation only at 50 μg/ml) | –
3 | CN(C)C(=O)C(CCN1CCC(O)(c2ccc(Cl)cc2)CC1)(c1ccccc1)c1ccccc1 [compound 144, Loperamidehydrochloride] | 11 (compounds for which there was clear down regulation only at 50 μg/ml) | –
4 | COc1cc2cc3c4cc(OC)c(OC)cc4cc[n+]3c(C)c2cc1OC [compound 431, Coralyne chloridehydrate] | – | — (compounds for which there was no clear down regulation even at 50 μg/ml)
5 | COc1ccc(Cc2nccc3cc(OC)c(OC)cc23)cc1OC.Cl [compound 583, Papaverinehydrochloride] | – | 11 (compounds for which there was clear down regulation only at 50 μg/ml)
6 | COc1ccc2cc3[n+](cc2c1OC)CCc1cc2c(cc1-3)OCO2.[Cl-] [compound 586, Berberine chloride] | – | — (compounds for which there was no clear down regulation even at 50 μg/ml)
7 | COc1cc2c(cc1O)C[C@H]1c3c(cc(O)c(OC)c3-2)CCN1C [compound 600, Boldine] | — (compounds for which there was no clear down regulation even at 50 μg/ml) | –
8 | CN1CCc2cc3c(c4c2C1Cc1ccccc1-4)OCO3.Cl (stereo not shown) [compound 669, Remerine hydrochloride] | 11 (compounds for which there was clear down regulation only at 50 μg/ml) | –
9 | COc1cc2nc(N3CCN(C(=O)C4CCCO4)CC3)nc(N)c2cc1OC.Cl (stereo not shown) [compound 751, Terazosin hydrochloride] | — (compounds for which there was no clear down regulation even at 50 μg/ml) | –
10 | CC[N+](C)(CC)CCC[n+]1c(-c2ccccc2)c2cc(N)ccc2c2ccc(N)cc21.[I-].[I-] [compound 792, Propidium iodide] | – | — (compounds for which there was no clear down regulation even at 50 μg/ml)
11 | CN(C)CCN(Cc1ccc(Cl)cc1)c1ccccn1.Cl [compound 807, Chloro-pyraminehydrochloride] | – | — (compounds for which there was no clear down regulation even at 50 μg/ml)
12 | CCOc1ccc(Cc2nccc3cc(OCC)c(OCC)cc23)cc1OCC.Cl [compound 830, Ethaverinehydrochloride] | – | 11 (compounds for which there was clear down regulation only at 50 μg/ml)
13 | COc1cc2nc(N3CCN(C(=O)C4COc5ccccc5O4)CC3)nc(N)c2cc1OC.CS(=O)(=O)O (stereo not shown) [compound 858, Doxazosin mesylate] | — (compounds for which there was no clear down regulation even at 50 μg/ml) | –
14 | O=c1c2c(nc(NCCO)n1-c1ccccc1)-c1ccccc1CC21CCCC1 [compound 891] | – | 11 (compounds for which there was clear down regulation only at 50 μg/ml)
15 | O=c1c2c(nc(NCCO)n1Cc1ccccc1)-c1ccccc1CC21CCCC1 [compound 926] | – | 11 (compounds for which there was clear down regulation only at 50 μg/ml)
16 | CN1CCc2c1nc1ccccc1c2N [compound 990, 1-Methyl-2,3-dihydro-1H-pyrrolo[2,3-b]quinolin-4-ylamine] | – | — (compounds for which there was no clear down regulation even at 50 μg/ml)
17 | CN1CCc2c1nc1ccccc1c2NC(=O)CN1CCCCCC1 [compound 1003] | – | 11 (compounds for which there was clear down regulation only at 50 μg/ml)

Row | SMILES | hTLR7 (inhibitory effect, antagonist score) | hTLR7 (inhibitory effect)
18 | Cc1ccc2nc3c(c(N)c2c1)CCN3C [compound 1091, 1,6-Dimethyl-2,3-dihydro-1H-pyrrolo[2,3-b]quinolin-4-ylamine] | – | 11 (compounds for which there was clear down regulation only at 50 μg/ml)
19 | Cc1ccc(-n2c(NCCO)nc3c(c2=O)C2(CCCCC2)Cc2ccccc2-3)cc1 [compound 1137] | – | 12 (compounds for which there was clear down regulation at 5 μg/ml and 50 μg/ml)
20 | CN1CCc2c1nc1ccc(Br)cc1c2N [compound 1142, 6-Bromo-1-methyl-2,3-dihydro-1H-pyrrolo[2,3-b]quinolin-4-ylamine] | – | 11 (compounds for which there was clear down regulation only at 50 μg/ml)
21 | O=C1c2ccc(S(=O)(=O)c3ccc4c(c3)C(=O)N(c3ccccn3)C4=O)cc2C(=O)N1c1ccccn1 [compound 1163] | – | 11 (compounds for which there was clear down regulation only at 50 μg/ml)
22 | CN1CCCCc2c1nc1ccccc1c2N [compound 1185, 1-Methyl-2,3,4,5-tetrahydro-1H-azepino[2,3-b]quinolin-6-ylamine] | – | — (compounds for which there was no clear down regulation even at 50 μg/ml)
23 | CN1CCc2c1nc1ccccc1c2NC(=O)CN1CCN(c2ccccc2)CC1 [compound 1212] | – | 11 (compounds for which there was clear down regulation only at 50 μg/ml)
24 | Cn1c(NN)nc2c(c1=O)C1(CCCC1)Cc1ccccc1-2 [compound 1213] | – | 11 (compounds for which there was clear down regulation only at 50 μg/ml)
25 | Nc1c2c(nc3ccccc13)N(Cc1ccccc1)CC2 [compound 1217, 1-Benzyl-2,3-dihydro-1H-pyrrolo[2,3-b]quinolin-4-ylamine] | – | 13 (compounds for which there was clear down regulation at 0.5 μg/ml, 5 μg/ml, and 50 μg/ml)
26 | CCCCCCN(CCCCCC)CC(=O)Nc1c2c(nc3ccccc13)N(C)CC2 [compound 1224] | – | 12 (compounds for which there was clear down regulation at 5 μg/ml and 50 μg/ml)
27 | O=C(CN1CCCC1)Nc1c2c(nc3ccccc13)N(c1ccccc1)CC2 [compound 1244] | – | 11 (compounds for which there was clear down regulation only at 50 μg/ml)
28 | NNc1nc2c(c(=O)n1C1CCCC1)C1(CCCC1)Cc1ccccc1-2 [compound 1248] | – | 11 (compounds for which there was clear down regulation only at 50 μg/ml)
29 | NNc1nc2c(c(=O)n1-c1ccccc1)C1(CCCC1)Cc1ccccc1-2 [compound 1320] | – | — (compounds for which there was no clear down regulation even at 50 μg/ml)
30 | O=c1[nH]c(NCCO)nc2c1C1(CCCC1)Cc1ccccc1-2 [compound 1322] | – | 11 (compounds for which there was clear down regulation only at 50 μg/ml)
31 | CCCCCCCCCCCC(=O)Nc1c2c(nc3ccccc13)N(C)CC2 [compound 1334] | – | — (compounds for which there was no clear down regulation even at 50 μg/ml)
32 | O=C1c2ccc(Oc3ccc(S(=O)(=O)c4ccc(Oc5ccc6c(c5)C(=O)N(c5ccccn5)C6=O)cc4)cc3)cc2C(=O)N1c1ccccn1 [compound 1367] | – | 11 (compounds for which there was clear down regulation only at 50 μg/ml)
33 | CCN(CC)CCCC(C)Nc1nc(/C=C/c2ccc(Cl)cc2)nc2cc3ccccc3cc12 (stereo not shown) [compound 2000] | 13 (compounds for which there was clear down regulation at 0.5 μg/ml, 5 μg/ml, and 50 μg/ml) | –
34 | CCN(CC)CCCNc1nc(-c2ccccc2)nc2ccccc12 [compound 2001] | 11 (compounds for which there was clear down regulation only at 50 μg/ml) | –
